# Target: T1, recombinant human ACC2 (Homo sapiens, UniProt O00763)
# T1 construct: a full length Cytomax clone of ACC2 was purchased from Cambridge Bioscience Limited; made in house; host or cells: CHO cells (tetracycline induction, pcDNA5 FRT TO-TOPO); purified on a Softlink Soft Release Avidin column
# Experiment: Measurement of human ACC2 inhibition (recombinant hACC2 Transcreener ADP detection FP assay)
# Type: biochemical
# Conditions: not given
# Method: [3] Measurement of human ACC2 inhibition. Human ACC2 inhibition was measured using purified recombinant human ACC2 (hrACC2). […] The ACC2 was expressed in CHO cells by tetracycline induction and harvested in 5 liters of DMEM/F12 with glutamine, biotin, hygromycin and blasticidin with 1 μg/mL tetracycline (Invitrogen, Carlsbad, Calif.). The conditioned medium containing ACC2 was then applied to a Softlink Soft Release Avidin column (Promega, Madison, Wis.) and eluted with 5 mM biotin. […] The purified ACC2 was dialyzed in 50 mM Tris, 200 mM NaCl, 4 mM DTT, 2 mM EDTA, and 5% glycerol. […] The final conditions for the assay were 50 mM HEPES, pH7.5, 5 mM MgCl2, 5 mM tripotassium citrate, 2 mM DTT, 0.5 mg/mL BSA, 30 μM acetyl-CoA, 50 μM ATP, and 8 mM KHCO3. Typically, a 10 μl reaction was run for 1 hour at room temperature, and 10 μl of Transcreener stop and detect buffer was added and incubated for an additional 1 hour.
# T1 sequence (O00763 whole entry): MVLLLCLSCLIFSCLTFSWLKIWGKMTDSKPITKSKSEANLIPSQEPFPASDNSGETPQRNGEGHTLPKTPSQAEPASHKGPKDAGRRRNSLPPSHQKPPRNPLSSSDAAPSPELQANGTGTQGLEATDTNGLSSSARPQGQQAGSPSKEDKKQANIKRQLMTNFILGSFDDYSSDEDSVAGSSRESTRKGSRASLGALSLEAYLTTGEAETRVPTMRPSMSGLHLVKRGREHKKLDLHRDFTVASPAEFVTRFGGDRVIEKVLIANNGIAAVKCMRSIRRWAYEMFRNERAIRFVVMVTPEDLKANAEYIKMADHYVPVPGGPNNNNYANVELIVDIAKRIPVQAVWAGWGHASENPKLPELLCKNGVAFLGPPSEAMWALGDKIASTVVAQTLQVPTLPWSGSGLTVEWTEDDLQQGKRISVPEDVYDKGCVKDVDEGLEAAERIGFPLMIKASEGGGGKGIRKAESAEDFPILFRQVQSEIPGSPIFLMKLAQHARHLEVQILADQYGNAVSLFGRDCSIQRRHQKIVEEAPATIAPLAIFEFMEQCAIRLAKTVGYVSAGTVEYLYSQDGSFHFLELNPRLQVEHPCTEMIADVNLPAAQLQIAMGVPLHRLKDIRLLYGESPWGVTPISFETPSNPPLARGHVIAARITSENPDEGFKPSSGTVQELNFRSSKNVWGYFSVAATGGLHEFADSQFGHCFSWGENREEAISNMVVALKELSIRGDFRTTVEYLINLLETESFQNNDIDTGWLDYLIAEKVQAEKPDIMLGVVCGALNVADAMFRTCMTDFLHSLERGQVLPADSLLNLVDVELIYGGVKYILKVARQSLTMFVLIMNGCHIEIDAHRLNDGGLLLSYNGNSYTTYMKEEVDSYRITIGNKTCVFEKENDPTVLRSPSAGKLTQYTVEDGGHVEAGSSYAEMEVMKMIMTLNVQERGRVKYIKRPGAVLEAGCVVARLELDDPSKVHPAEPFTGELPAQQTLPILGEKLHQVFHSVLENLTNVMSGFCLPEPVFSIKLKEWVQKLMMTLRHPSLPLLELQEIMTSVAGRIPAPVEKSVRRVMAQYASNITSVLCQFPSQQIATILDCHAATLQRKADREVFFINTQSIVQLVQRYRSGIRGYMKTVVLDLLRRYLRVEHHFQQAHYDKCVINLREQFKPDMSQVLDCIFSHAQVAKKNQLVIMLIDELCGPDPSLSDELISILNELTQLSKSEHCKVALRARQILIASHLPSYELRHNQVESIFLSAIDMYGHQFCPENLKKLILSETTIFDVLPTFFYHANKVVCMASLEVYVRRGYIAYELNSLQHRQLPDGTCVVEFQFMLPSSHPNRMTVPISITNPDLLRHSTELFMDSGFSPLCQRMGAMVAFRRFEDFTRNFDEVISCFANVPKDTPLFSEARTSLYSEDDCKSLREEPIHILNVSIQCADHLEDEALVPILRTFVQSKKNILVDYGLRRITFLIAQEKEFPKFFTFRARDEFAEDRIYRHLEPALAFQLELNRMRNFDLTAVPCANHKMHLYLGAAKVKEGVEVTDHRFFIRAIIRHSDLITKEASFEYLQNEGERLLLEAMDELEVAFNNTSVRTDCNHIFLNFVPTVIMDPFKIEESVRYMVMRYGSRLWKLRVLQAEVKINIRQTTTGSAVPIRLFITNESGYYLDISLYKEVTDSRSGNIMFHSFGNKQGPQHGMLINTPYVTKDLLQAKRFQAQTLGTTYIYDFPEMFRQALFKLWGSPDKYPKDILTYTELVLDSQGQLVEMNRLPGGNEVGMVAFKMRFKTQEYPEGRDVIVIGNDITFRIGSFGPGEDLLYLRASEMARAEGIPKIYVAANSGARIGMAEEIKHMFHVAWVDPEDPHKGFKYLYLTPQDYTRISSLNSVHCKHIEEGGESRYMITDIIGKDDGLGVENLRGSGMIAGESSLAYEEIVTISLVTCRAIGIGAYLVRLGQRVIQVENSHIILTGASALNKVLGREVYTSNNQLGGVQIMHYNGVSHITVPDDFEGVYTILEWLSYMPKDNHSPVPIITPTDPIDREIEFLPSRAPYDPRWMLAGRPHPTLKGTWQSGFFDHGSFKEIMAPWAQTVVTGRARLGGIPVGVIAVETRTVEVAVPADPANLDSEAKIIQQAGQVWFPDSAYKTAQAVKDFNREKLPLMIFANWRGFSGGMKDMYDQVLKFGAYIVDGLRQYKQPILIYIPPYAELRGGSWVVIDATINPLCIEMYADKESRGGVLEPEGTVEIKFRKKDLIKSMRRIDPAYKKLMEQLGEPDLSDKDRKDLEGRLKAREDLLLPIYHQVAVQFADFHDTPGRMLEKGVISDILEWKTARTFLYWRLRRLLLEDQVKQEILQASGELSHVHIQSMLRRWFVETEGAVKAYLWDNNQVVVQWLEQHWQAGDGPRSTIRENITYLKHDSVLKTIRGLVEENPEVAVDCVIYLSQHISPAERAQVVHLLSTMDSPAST
row,SMILES,IC50 [nM]
1,Cc1cc(C(=O)N2CCC3(CC2)CC(=O)c2nn(C)cc2O3)cc2cn[nH]c12 [1.029],629

# Same assay, conditions: recombinant hACC2 transcreener assay; read-out: rhACC2 IC50
row,IC50 [nM],SMILES
1,8,Cc1n[nH]c2c(C)cc(C(=O)N3CCC4(CC3)CC(=O)c3nn(C(C)C)cc3O4)cc12 [1.002]
2,20,CCCn1cc2c(n1)C(=O)CC1(CCN(C(=O)c3cc(C)c4[nH]nc(C)c4c3)CC1)O2 [1.004]
3,117,Cc1n[nH]c2c(C)cc(C(=O)N3CCC4(CC3)CC(=O)c3nn(C)c(C)c3O4)cc12 [1.005]
4,80,Cc1n[nH]c2c(C)cc(C(=O)N3CCC4(CC3)CC(=O)c3nn(C)cc3O4)cc12 [1.006]
5,189,CCc1c2c(nn1C)C(=O)CC1(CCN(C(=O)c3cc(C)c4[nH]nc(C)c4c3)CC1)O2 [1.007]
6,21,Cc1n[nH]c2c(C)cc(C(=O)N3CCC4(CC3)CC(=O)c3nn(C5CCCCC5)cc3O4)cc12 [1.008]
7,4,Cc1n[nH]c2c(C)cc(C(=O)N3CCC4(CC3)CC(=O)c3nn(C5CCCC5)cc3O4)cc12 [1.009]
8,4,Cc1n[nH]c2c(C)cc(C(=O)N3CCC4(CC3)CC(=O)c3nn(C5CCC5)cc3O4)cc12 [1.010]
9,15,Cc1n[nH]c2c(C)cc(C(=O)N3CCC4(CC3)CC(=O)c3nn(C(C)(C)C)c(C)c3O4)cc12 [1.011]
10,8,Cc1n[nH]c2c(C)cc(C(=O)N3CCC4(CC3)CC(=O)c3nn(C(C)C)c(C)c3O4)cc12 [1.013]
11,9,Cc1n[nH]c2c(C)cc(C(=O)N3CCC4(CC3)CC(=O)c3nn(C5CC5)c(C)c3O4)cc12 [1.014]
12,22,Cc1n[nH]c2c(C)cc(C(=O)N3CCC4(CC3)CC(=O)c3nn(C5CCOC5)cc3O4)cc12 (centres unmarked) [1.016]
13,3,CCc1n[nH]c2c(C)cc(C(=O)N3CCC4(CC3)CC(=O)c3nn(C(C)C)cc3O4)cc12 [1.017]
14,34,CCOc1cc(C(=O)N2CCC3(CC2)CC(=O)c2nn(CC)c(C)c2O3)cc2c(CC)n[nH]c12 [1.018]
15,18,CCc1n[nH]c2c(C)cc(C(=O)N3CCC4(CC3)CC(=O)c3nn(CC)cc3O4)cc12 [1.019]
16,3,CCc1n[nH]c2c(C)cc(C(=O)N3CCC4(CC3)CC(=O)c3nn(C(C)(C)C)cc3O4)cc12 [1.020]
17,54,CCn1cc2c(n1)C(=O)CC1(CCN(C(=O)c3cc(C)c4[nH]ncc4c3)CC1)O2 [1.025]
18,127,COc1cc(-n2nc3c(c2C)OC2(CCN(C(=O)c4cc(C)c5[nH]ncc5c4)CC2)CC3=O)ccc1C#N [1.028]
19,376,Cc1cc(C(=O)N2CCC3(CC2)CC(=O)c2nn(C)c(C)c2O3)cc2cn[nH]c12 [1.030]
20,487,Cc1cc(C(=O)N2CCC3(CC2)CC(=O)c2nn(Cc4ccccc4)c(C)c2O3)cc2cn[nH]c12 [1.033]
21,367,CCc1c2c(nn1C)C(=O)CC1(CCN(C(=O)c3cc(C)c4[nH]ncc4c3)CC1)O2 [1.035]
22,60,Cc1cc(C(=O)N2CCC3(CC2)CC(=O)c2nn(C4CCCCC4)cc2O3)cc2cn[nH]c12 [1.037]
23,15,Cc1cc(C(=O)N2CCC3(CC2)CC(=O)c2nn(C(C)C)c(C)c2O3)cc2cn[nH]c12 [1.040]
24,46,Cc1cc(C(=O)N2CCC3(CC2)CC(=O)c2nn(C4CCOC4)c(C)c2O3)cc2cn[nH]c12 (centres unmarked) [1.041]
25,43,Cc1cc(C(=O)N2CCC3(CC2)CC(=O)c2nn(C(C)(C)C)c(C)c2O3)cc2cn[nH]c12 [1.043]

row,IC50 [nM],SMILES
1,5,CCc1n[nH]c2c(OC)cc(C(=O)N3CCC4(CC3)CC(=O)c3nn(C(C)C)cc3O4)cc12 [1.044]
2,22,CCc1n[nH]c2c(OC)cc(C(=O)N3CCC4(CC3)CC(=O)c3nn(CC)c(C)c3O4)cc12 [1.045]
3,29,CCc1n[nH]c2c(OC)cc(C(=O)N3CCC4(CC3)CC(=O)c3nn(CC)cc3O4)cc12 [1.046]
4,2,CCc1n[nH]c2c(OC)cc(C(=O)N3CCC4(CC3)CC(=O)c3nn(C(C)(C)C)cc3O4)cc12 [1.047]
5,18,CCc1n[nH]c2c(OC)cc(C(=O)N3CCC4(CC3)CC(=O)c3nn(C5CCCCC5)cc3O4)cc12 [1.048]
6,7,CCc1n[nH]c2c(OC)cc(C(=O)N3CCC4(CC3)CC(=O)c3nn(C5CCCC5)cc3O4)cc12 [1.049]
7,5,CCc1n[nH]c2c(OC)cc(C(=O)N3CCC4(CC3)CC(=O)c3nn(C5CCC5)cc3O4)cc12 [1.050]
8,17,COc1cc(C(=O)N2CCC3(CC2)CC(=O)c2nn(C(C)C)cc2O3)cc2cn[nH]c12 [1.051]
9,33,CCn1nc2c(c1C)OC1(CCN(C(=O)c3cc(OC)c4[nH]ncc4c3)CC1)CC2=O [1.052]
10,62,CCn1cc2c(n1)C(=O)CC1(CCN(C(=O)c3cc(OC)c4[nH]ncc4c3)CC1)O2 [1.053]
11,29,COc1cc(C(=O)N2CCC3(CC2)CC(=O)c2nn(C(C)(C)C)c(C)c2O3)cc2cn[nH]c12 [1.054]
12,10,COc1cc(C(=O)N2CCC3(CC2)CC(=O)c2nn(C(C)C)c(C)c2O3)cc2cn[nH]c12 [1.055]
13,35,CCc1cc(C(=O)N2CCC3(CC2)CC(=O)c2nn(CC)c(C)c2O3)cc2cn[nH]c12 [1.056]
14,40,CCc1cc(C(=O)N2CCC3(CC2)CC(=O)c2nn(CC)cc2O3)cc2cn[nH]c12 [1.057]
15,210,CCc1cc(C(=O)N2CCC3(CC2)CC(=O)c2nn(C)cc2O3)cc2cn[nH]c12 [1.059]
16,6,CCc1cc(C(=O)N2CCC3(CC2)CC(=O)c2nn(C(C)(C)C)cc2O3)cc2cn[nH]c12 [1.060]
17,54,CCn1nc2c(c1C)OC1(CCN(C(=O)c3cc(Cl)c4[nH]ncc4c3)CC1)CC2=O [1.061]
18,43,CCn1cc2c(n1)C(=O)CC1(CCN(C(=O)c3cc(Cl)c4[nH]ncc4c3)CC1)O2 [1.062]
19,137,Cc1c2c(nn1C)C(=O)CC1(CCN(C(=O)c3cc(Cl)c4[nH]ncc4c3)CC1)O2 [1.063]
20,8,CC(C)(C)n1cc2c(n1)C(=O)CC1(CCN(C(=O)c3cc(Cl)c4[nH]ncc4c3)CC1)O2 [1.065]
21,26,CC(C)n1cc2c(n1)C(=O)CC1(CCN(C(=O)c3cc(Cl)c4[nH]ncc4c3)CC1)O2 [1.066]
22,50,CC(C)n1cc2c(n1)C(=O)CC1(CCN(C(=O)c3ccc4[nH]ncc4c3)CC1)O2 [1.067]
23,84,CCn1nc2c(c1C)OC1(CCN(C(=O)c3ccc4[nH]ncc4c3)CC1)CC2=O [1.068]
24,197,CCn1cc2c(n1)C(=O)CC1(CCN(C(=O)c3ccc4[nH]ncc4c3)CC1)O2 [1.069]
25,713,Cc1c2c(nn1C)C(=O)CC1(CCN(C(=O)c3ccc4[nH]ncc4c3)CC1)O2 [1.070]

row,IC50 [nM],SMILES
1,773,Cn1cc2c(n1)C(=O)CC1(CCN(C(=O)c3ccc4[nH]ncc4c3)CC1)O2 [1.071]
2,61,Cc1c2c(nn1C(C)(C)C)C(=O)CC1(CCN(C(=O)c3ccc4[nH]ncc4c3)CC1)O2 [1.072]
3,35,Cc1c2c(nn1C(C)C)C(=O)CC1(CCN(C(=O)c3ccc4[nH]ncc4c3)CC1)O2 [1.073]
4,6,COc1cc(C(=O)N2CCC3(CC2)CC(=O)c2nn(C(C)C)cc2O3)cc2c(C)n[nH]c12 [1.075]
5,2,COc1cc(C(=O)N2CCC3(CC2)CC(=O)c2nn(C(C)(C)C)cc2O3)cc2c(C)n[nH]c12 [1.076]
6,15,CCn1nc2c(c1C)OC1(CCN(C(=O)c3cc(OC)c4[nH]nc(C)c4c3)CC1)CC2=O [1.077]
7,4,COc1cc(C(=O)N2CCC3(CC2)CC(=O)c2nn(C(C)C)c(C)c2O3)cc2c(C)n[nH]c12 [1.078]
8,12,CCn1cc2c(n1)C(=O)CC1(CCN(C(=O)c3cc(OC)c4[nH]nc(C)c4c3)CC1)O2 [1.079]
9,36,CCn1nc2c(c1C)OC1(CCN(C(=O)c3ccc4[nH]nc(C)c4c3)CC1)CC2=O [1.080]
10,10,Cc1n[nH]c2ccc(C(=O)N3CCC4(CC3)CC(=O)c3nn(C(C)C)cc3O4)cc12 [1.081]
11,53,CCCn1cc2c(n1)C(=O)CC1(CCN(C(=O)c3ccc4[nH]nc(C)c4c3)CC1)O2 [1.082]
12,43,CCn1cc2c(n1)C(=O)CC1(CCN(C(=O)c3ccc4[nH]nc(C)c4c3)CC1)O2 [1.083]
13,403,Cc1n[nH]c2ccc(C(=O)N3CCC4(CC3)CC(=O)c3nn(C)cc3O4)cc12 [1.085]
14,3,Cc1n[nH]c2ccc(C(=O)N3CCC4(CC3)CC(=O)c3nn(C(C)(C)C)cc3O4)cc12 [1.086]
15,135,Cc1n[nH]c2ccc(C(=O)N3CCC4(CC3)CC(=O)c3nn(C5CCCCC5)cc3O4)cc12 [1.087]
16,16,Cc1n[nH]c2ccc(C(=O)N3CCC4(CC3)CC(=O)c3nn(C5CCCC5)cc3O4)cc12 [1.088]
17,22,Cc1n[nH]c2ccc(C(=O)N3CCC4(CC3)CC(=O)c3nn(C5CCC5)cc3O4)cc12 [1.089]
18,23,Cc1n[nH]c2ccc(C(=O)N3CCC4(CC3)CC(=O)c3nn(C(C)(C)C)c(C)c3O4)cc12 [1.090]
19,15,Cc1n[nH]c2ccc(C(=O)N3CCC4(CC3)CC(=O)c3nn(C(C)C)c(C)c3O4)cc12 [1.091]
20,18,CCc1n[nH]c2ccc(C(=O)N3CCC4(CC3)CC(=O)c3nn(CC)cc3O4)cc12 [1.093]
21,397,CCc1n[nH]c2ccc(C(=O)N3CCC4(CC3)CC(=O)c3nn(C)cc3O4)cc12 [1.095]
22,12,CCc1n[nH]c2ccc(C(=O)N3CCC4(CC3)CC(=O)c3nn(C(C)(C)C)cc3O4)cc12 [1.096]
23,20,CCc1nn(C)c2c(OC)cc(C(=O)N3CCC4(CC3)CC(=O)c3nn(CC)cc3O4)cc12 [1.099]

# Reference: patent publication US8318762B2, “Pyrazolospiroketone acetyl-CoA carboxylase inhibitors” (Pfizer Inc., priority 2008, dated 2012)
